Where only a bound is given, the exact number is not on record here.

1 molecule from patent US9399145B2, “Nanoscale neuromodulating platform for retina neuron activation apparatus and method” (The Board of Trustees of the University of Illinois, priority 2005, dated 2016) can be followed below.

For data set [1], the system named is GABAARs of retinal ganglion cells. The experiment in a line: Whole-cell patch clamp of isolated retinal ganglion cells. The format is cell-based, rat. The settings on record: for peak amplitude of direct response relative to response to 200 μM GABA: alone. Here is the method:
To test whether native neuronal GABAARs respond to MPC088, retinal ganglion cells (RGCs), a cell type known to abundantly express GABAARs (Ishida et al. (1988); Fischer et al. (1998); Wässle et al. (1998); Rotolo et al. (2003)), were examined. […] The cis-dominant preparation was obtained by pre-treating trans-dominant MPC088 with UV light for 5 min.
Inset: Aggregate data for direct activation by MPC088.
Experiments were conducted on enzymatically dissociated ganglion cells obtained from adult Sprague-Dawley rats (male and female, 6-16 weeks of age) (Charles River Laboratories, Wilmington, Mass.). Procedures for euthanasia, isolation of the retina, and the dissociation of retinal cells were as described previously (Ramsey et al. (2007) except that the period of retinal cell dissociation was shortened from 40 min to 20 min. Isolated ganglion cells were identified on the basis of their morphological appearance and the presence of a large voltage-gated sodium current. Whole-cell patch-clamp techniques similar to those described (Ramsey et al. (2007)) were used to record membrane current responses to test agents. The patch pipette with a resistance of 8-12 MΩ was pulled in two stages using a micro-electrode puller (Model PP830, Narishige Group, Tokyo, Japan). The pipette was filled with an intracellular solution containing 95 mM CsCH3SO3, 20 mM TEA-Cl, 10 mM glutamic acid, 1 mM BAPTA, 10 mM HEPES, 8 mM phosphocreatine di(tris), 1 mM MgATP and 0.2 mM Na2GTP; pH adjusted to 7.2 with CsOH. Cells were clamped at 0 mV (Axopatch 200B amplifier; Axon Instruments), and experimental runs were controlled by pCLAMP system software (Axon Instruments). Electrophysiological data were obtained in response to test compounds dissolved in physiological saline (Ringer solution) that consisted of 135 mM NaCl, 5 mM KCl, 2 mM CaCl2, 2 mM MgCl2, 10 mM glucose, and 5 mM HEPES, pH 7.4. Supplementation of aqueous test solutions with MPC088 was carried out by adding an aliquot of a stock solution containing the compound dissolved in dimethyl sulfoxide (DMSO). In all experiments, the amount of carrier DMSO present in the applied test solution was <1% (v/v). Test solutions were delivered from separate reservoirs by a multi-channel perfusion system. The same UV-LED used in the oocyte experiments was used for UV illumination of MPC088-supplemented test solutions. For preparation of cis-dominant MPC088, the test solution of initially trans-dominant compound underwent a 5-min UV illumination prior to its placement in the perfusion reservoir. All preparative procedures were performed in the dark, and the reservoirs and perfusion lines were light-protected with aluminum foil. As in the oocyte experiments, data were analyzed with Clampfit and plotted with Origin. Unless otherwise stated, numerical data from replicate experiments are presented as mean±SD, and all statistical analyses of data obtained from oocytes and from retinal ganglion cells employed a two-sample t-test.
A general note: The patch-clamp technique gives a direct electrical read-out from membranes.

Data set [2] deals with T1, α1β2γ2 GABAARs (rat α1, rat β2 and human γ2S) (UniProt P18507+P62813+P63138).
T1 construct: expressed in transfected cells; host or cells: Xenopus laevis oocytes
As to the kind of experiment: Two-electrode voltage clamp of α1β2γ2 GABAAR-expressing Xenopus oocytes. Type of data set: cell-based. The settings on record: for rate constant 1/τ of UV-induced decrease in membrane current (de-potentiation): 3 μM GABA and 1 μM MPC088. An excerpt: Purple and gray bars indicate periods of presentation of UV light (purple) and high-intensity visible light (High-Vis) (gray), respectively. […] These amplitude determination conditions are denoted by numbers beneath the waveform in FIG. 35d.
In each of the MPC088 experiments, the cis-dominant form was generated by UV light during static bathing. […] Numbers beneath the waveform in FIG. 2(c) denote amplitude determination conditions for that experiment.
Oocytes expressing α1β2γ2 receptors (rat α1, rat β2 and human γ2S) were prepared and studied by two-electrode voltage-clamp recording^58 (holding potential: −70 mV; amplifier: GeneClamp500B; Axon Instruments, Foster City, Calif.). Unless otherwise indicated, oocytes were superfused with Ringer solution (physiological saline) at a rate of ˜1 mL/min. The experiments of FIGS. 35d-e, 36c-e and 47 involved periods of static bathing, i.e., halted superfusion. The γ2(A79C) subunit was prepared by site-directed mutagenesis. Oocyte electrophysiological experiments were carried out in room light. A UV light-emitting diode (peak wavelength: 365 nm; Hamamatsu Photonics, Japan) and a microscope illuminator (white light; Schott Fostec, Auburn, N.Y.) provided UV and visible stimulating light. As measured at the position of the oocyte, the intensity of the UV light at 365 nm was 220 μW/mm^2. At 440 nm, the nominal strength of the visible (white) light (referred to as high-intensity visible light) was 28 μW/mm^2, and that of the ambient room illumination was 0.045 μW/mm^2. In all experiments, low-intensity visible light from the microscope illuminator (3 μW/mm^2 at 440 nm) was present at all times except those involving high-intensity visible illumination. Electrophysiological data were obtained using Clampex 8.2 (Axon Instruments), analyzed using Clampfit 10.0 (Axon Instruments) and OriginPro7.5 (OriginLab, Northampton, Mass.). All statistical analysis employed a two-sample t-test.

A short description of the next data set: Hydrophobicity (log P). The format is physicochemical.

T1 sequence (P62813 28-455): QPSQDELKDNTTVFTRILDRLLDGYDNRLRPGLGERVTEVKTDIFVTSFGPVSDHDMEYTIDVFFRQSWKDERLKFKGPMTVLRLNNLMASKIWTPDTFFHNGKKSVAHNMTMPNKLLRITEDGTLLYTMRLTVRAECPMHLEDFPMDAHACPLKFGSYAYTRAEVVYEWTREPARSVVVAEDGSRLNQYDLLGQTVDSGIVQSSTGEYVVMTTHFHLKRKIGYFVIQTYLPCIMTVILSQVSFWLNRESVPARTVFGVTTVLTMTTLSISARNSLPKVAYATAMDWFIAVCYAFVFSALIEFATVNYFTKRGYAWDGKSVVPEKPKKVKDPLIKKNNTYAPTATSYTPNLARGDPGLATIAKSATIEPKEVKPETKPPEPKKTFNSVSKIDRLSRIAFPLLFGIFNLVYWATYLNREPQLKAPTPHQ
T1 sequence (P63138 25-474 limits assumed): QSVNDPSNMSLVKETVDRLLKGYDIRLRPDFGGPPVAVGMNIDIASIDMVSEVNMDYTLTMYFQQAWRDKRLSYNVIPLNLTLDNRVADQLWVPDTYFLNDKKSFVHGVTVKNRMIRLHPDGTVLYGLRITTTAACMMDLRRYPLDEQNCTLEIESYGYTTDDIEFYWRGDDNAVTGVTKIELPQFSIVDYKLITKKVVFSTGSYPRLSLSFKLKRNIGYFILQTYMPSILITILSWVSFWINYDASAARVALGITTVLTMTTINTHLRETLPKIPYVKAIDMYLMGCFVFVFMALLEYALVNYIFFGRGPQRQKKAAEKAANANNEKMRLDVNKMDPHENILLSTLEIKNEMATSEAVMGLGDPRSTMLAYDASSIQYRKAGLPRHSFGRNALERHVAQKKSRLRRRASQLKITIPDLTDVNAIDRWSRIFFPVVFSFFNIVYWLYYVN
T1 sequence (P18507 40-467 isoform P18507-1 limits assumed): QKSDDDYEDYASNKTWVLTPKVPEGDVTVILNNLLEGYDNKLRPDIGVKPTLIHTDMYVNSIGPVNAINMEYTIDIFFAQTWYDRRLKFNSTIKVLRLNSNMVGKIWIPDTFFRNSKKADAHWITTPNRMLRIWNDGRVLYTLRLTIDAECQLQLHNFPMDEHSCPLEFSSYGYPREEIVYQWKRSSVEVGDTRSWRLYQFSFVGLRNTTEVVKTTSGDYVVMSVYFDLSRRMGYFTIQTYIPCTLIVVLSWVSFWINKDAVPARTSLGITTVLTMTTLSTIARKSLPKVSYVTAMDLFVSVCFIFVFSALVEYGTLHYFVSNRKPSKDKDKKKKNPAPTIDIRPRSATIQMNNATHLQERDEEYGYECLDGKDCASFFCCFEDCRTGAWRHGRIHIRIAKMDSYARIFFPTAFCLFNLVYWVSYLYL

On to `CC(C)c1cc(CCCC(=O)NCc2ccc(/N=N/c3ccc(C(=O)NCCN)cc3)cc2)cc(C(C)C)c1O` [MPC088, (E)-N-(2-Aminoethyl)-4-((4-((4-(4-hydroxy-3,5-diisopropylphenyl)butanamido)methyl)phenyl)diazenyl)benzamide], for which the “potentiation of the response elicited by 2 μM GABA” value in data set [1] (10 μM trans-dominant) is “approximately 5 fold”. Also, the “peak amplitude of direct response relative to response to 200 μM GABA” value in data set [1] (30 μM trans-dominant) is given as 5%; in data set [1] (60 μM trans-dominant), 43±9%. For the same molecule, in data set [1] (60 μM, UV pre-treated (cis-dominant) vs trans-dominant), the “reduction of agonist activity by UV pre-treatment” value is recorded as 88±6%. Further, the “GABAAR potentiating and direct agonist activities relative to parent propofol” value in data set [2] was “more than an order of magnitude”. Also, the “rate constant 1/τ of UV-induced decrease in membrane current (de-potentiation)” value in data set [2] (10-fold reduced UV intensity) is 0.13 ± 0.02 s⁻¹; in data set [2] (nominal UV intensity) it was 0.43 ± 0.09 s⁻¹. The “potentiation of the GABA response” value in data set [2] (co-applied 3 μM GABA, MPC088 1 μM, MPD021 10 or 100 μM, MPC100 10 μM) is “markedly potentiated the GABA response”. For the same molecule, the “maximum current of direct activation relative to the 100 μM GABA response” value in data set [2] (compound alone) is recorded as “comparable with the peak current elicited by 100 μM GABA”. Further, in data set [2] (compound alone, no GABA), the “lowest concentration at which direct activation response is clearly evident” value was 4 µM. Further, the “potency in direct activation relative to propofol” value in data set [2] (concentrations required for peak current equal to 40% of the 100 μM GABA-alone response) is listed as approximately 25 fold. Further, in the data set “Hydrophobicity (log P)”, the logP is more than 6.

In general, logP refers to a log measure of how a compound divides between an organic and an aqueous phase. Low values mean a more hydrophilic compound, high ones a more lipophilic compound.
